In patent US9663527B2, “Factor XIa inhibitors” (Merck Sharp & Dohme Corp., priority 2014, dated 2017):
Where a name gives a salt, the structure may show the parent alone.

Target: purified human Factor XIa (Homo sapiens (Human), UniProt P03951)
Assay: Factor XIa Assay
Assay type: biochemical
Settings: purified human Factor XIa 40 pM, substrate Z-Gly-Pro-Arg-AFC 100 μM, pH 7.4; read-out: hFactor XIa Ki
Description: The effectiveness of a compound of the present invention as an inhibitor of Coagulation Factor XIa can be determined using a relevant purified serine protease, and an appropriate synthetic substrate. The rate of hydrolysis of the chromogenic or fluorogenic substrate by the relevant serine protease was measured both in the absence and presence of compounds of the present invention. Assays were conducted at room temperature or at 37° C. […] A decrease in the rate of fluorescence change in the presence of inhibitor is indicative of enzyme inhibition. Such methods are known to one skilled in the art. The results of this assay are expressed as the inhibitory constant, Ki.
Factor XIa determinations were made in 50 mM HEPES buffer at pH 7.4 containing 150 mM NaCl, 5 mM CaCl2, and 0.1% PEG 8000 (polyethylene glycol; JT Baker or Fisher Scientific). Determinations were made using purified human Factor XIa at a final concentration of 40 pM (Sekisui Diagnostics) and the synthetic substrate, Z-Gly-Pro-Arg-AFC, TFA salt (Sigma #C0980) at a concentration of 100 μM.
Activity assays were performed by diluting a stock solution of substrate at least tenfold to a final concentration ≦0.1 Km into a solution containing enzyme or enzyme equilibrated with inhibitor. Times required to achieve equilibration between enzyme and inhibitor were determined in control experiments. Initial velocities of product formation in the absence (Vo) or presence of inhibitor (Vi) were measured. Assuming competitive inhibition, and that unity is negligible compared Km/[S], [I]/e, and [I]/e (where [S], [I], and e respectively represent the total concentrations, of substrate, inhibitor and enzyme), the equilibrium constant (Ki) for dissociation of the inhibitor from the enzyme can be obtained from the dependence of Vo/Vi on [I] shown in the following equation. Vo/Vi=1+[I]/Ki

Sequence of purified human Factor XIa (P03951 388-625): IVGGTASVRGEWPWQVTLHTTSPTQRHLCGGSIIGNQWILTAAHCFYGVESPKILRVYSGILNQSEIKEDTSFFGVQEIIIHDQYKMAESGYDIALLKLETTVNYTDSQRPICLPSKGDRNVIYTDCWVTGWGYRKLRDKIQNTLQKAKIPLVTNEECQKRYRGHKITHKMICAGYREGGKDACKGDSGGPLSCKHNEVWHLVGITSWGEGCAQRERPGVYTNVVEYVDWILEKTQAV
Sequence of purified human Factor XIa (P03951 19-387 partner): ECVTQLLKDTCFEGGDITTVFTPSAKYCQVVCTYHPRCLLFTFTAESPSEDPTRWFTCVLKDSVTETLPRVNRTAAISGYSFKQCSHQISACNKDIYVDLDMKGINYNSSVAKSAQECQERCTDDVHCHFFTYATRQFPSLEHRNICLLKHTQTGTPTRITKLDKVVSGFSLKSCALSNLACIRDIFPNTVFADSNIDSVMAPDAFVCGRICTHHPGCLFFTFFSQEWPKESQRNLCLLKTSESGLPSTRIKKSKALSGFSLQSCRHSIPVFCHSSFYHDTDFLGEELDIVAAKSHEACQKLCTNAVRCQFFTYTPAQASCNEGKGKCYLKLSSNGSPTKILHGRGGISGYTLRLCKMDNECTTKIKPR

Row | Ki [µM] | SMILES
1 | 0.0024 | COC(=O)Nc1ccc2c(c1)NC(=O)CCCC[C@H](N1CCc3cc(CN)ccc3C1=O)c1nc-2c[nH]1 [Example 1, Methyl [(7S)-7-[6-(aminomethyl)-1-oxo-3,4-dihydroisoquinolin-2(1H)-yl]-2-oxo-1,2,3,4,5,6,7,9-octahydro-11,8-(azeno)-1,9-benzodiazacyclotridecin-14-yl]carbamate]
2 | 0.17 | NCc1ccc2c(c1)CCN([C@H]1CCCCC(=O)Nc3ccc(F)cc3-c3ccnc1c3)C2=O [Example 4, 9-(6-(aminomethyl)-1-oxo-3,4-dihydroisoquinolin-2(1H)-yl)-2^5-fluoro-3-aza-1(4,2)-pyridina-2(1,2)-benzenacyclononaphan-4-one]
3 | 0.0039 | COC(=O)Nc1ccc2c(c1)NC(=O)CCCC[C@H](N1CCCc3cc(CN)ccc3C1=O)c1nc-2c[nH]1 [Example 2, Methyl [(7S)-7-[7-(aminomethyl)-1-oxo-1,3,4,5-tetrahydro-2H-2-benzazepin-2-yl]-2-oxo-1,2,3,4,5,6,7,9-octahydro-11,8-(azeno)-1,9-benzodiazacyclotridecin-14-yl]carbamate trifluoroacetate]
4 | 0.07 | COC(=O)Nc1ccc2c(c1)NC(=O)CCCC[C@H](N1Cc3cc(CN)ccc3C1=O)c1nc-2c[nH]1 [Example 3, Methyl [(7S)-7-[5-(aminomethyl)-1-oxo-1,3-dihydro-2H-isoindol-2-yl]-2-oxo-1,2,3,4,5,6,7,9-octahydro-11,8-(azeno)-1,9-benzodiazacyclotridecin-14-yl]carbamate]
